Results on 8 compounds are retold here after patent publication US20190225650A1, “PEPTIDOMIMETIC MACROCYCLES AND USE THEREOF IN REGULATING HIF1ALPHA” (AILERON THERAPEUTICS, INC., priority 2013, published 2019).

Structures are written as SMILES. Bridge positions count the residues as written; N and C are the ends. Square brackets hold non-standard residues; d marks the D form. Peptide text beside a SMILES is read from it. R8 = C=CCCCCCC[C@@](C)(N)C(=O)O; S5 = C=CCCC[C@](C)(N)C(=O)O; Nle = CCCC[C@H](N)C(=O)O

In assay [1] the target is T1, flag-tagged HIF1α (AA 786-826) / His6-tagged p300 (AA 323-423) complex (Homo sapiens, UniProt Q09472).
T1 construct: His6-tagged p300 (AA 323-423); made in house; host or cells: E. coli (pETDuet vector)
Put plainly: HIF1α p300 displacement assay (TR FRET, +CHAPS). In kind it is binding. The settings on record: read-out: IC50 (nM) (HIF1α_p300 Displacement + CHAPS). Put shortly:
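In this TR-FRET displacement format, peptides compete HIF1α C-terminal transactivation domain off p300-CH. They were preincubated 1 h at room temperature with 300 nM complex in HEPES pH 7.4/NaCl buffer with 7.5 mM CHAPS and 1 mM DTT. Anti-His-D2 (4 nM) and anti-Flag-K (0.5 μM) followed for 2 h, and a one-site fit of the fluorescence ratio gave IC50.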
(In general: TR-FRET usually uses a lanthanide donor and a delayed reading to cut background.)

Assay [2] relates to HRE-bla ME-180 cells. Put plainly: Reporter gene assay (HRE-bla ME-180 HIF reporter, GeneBLAzer). The format is cell-based, human. The settings on record: for EC50: 24 hour normoxia. The method in brief: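 A FRET β-lactamase readout of HIF transcription was used. After compound treatment in 0.3% DMSO/media under normoxic conditions, 20 μl of 6× LiveBLAzer-FRET B/G (CCF4-AM) substrate was added. Plates sat 3 hr at room temperature in the dark and were read at 409 Ex/460Em and 409Ex/530Em on a Synergy 2. Inhibition was compared against DMSO vehicle controls, with chetomin as positive control.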

Assay [3] deals with HRE-bla ME-180 cells. Nature of the assay: Cell proliferation assay (viability, MTT, 1% FBS). In kind it is cell-based, human. Put shortly: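 Viable cell number was measured with the CellTiter 96 (MTT) kit after compounds were applied for a 16 h normoxic (21% O2) pretreatment, followed by further normoxic or hypoxic (1% O2) culture. Cells: 2×10^4 ME-180 per well, Opti-MEM + 1% FBS, 0.5% DMSO vehicle.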

Consider `CCCC[C@@H]1NC(=O)[C@H](CC(C)C)NC(=O)[C@](C)(NC(=O)[C@H](CCC(=O)O)NC(=O)[C@H](CCC(=O)O)NC(=O)[C@H](CC(=O)O)NC(=O)[C@@H](NC(=O)[C@H](CC(N)=O)NC(=O)[C@@H](NC(=O)[C@]2(C)CCCC=CCCCCCC[C@@](C)(NC(=O)[C@H](CCC(=O)O)NC(=O)CNC(=O)[C@H](CCC(N)=O)NC(=O)[C@H](CC(C)C)NC(=O)[C@H](CC(C)C)NC(C)=O)C(=O)N[C@@H](CC(C)C)C(=O)N[C@@H](CC(C)C)C(=O)N[C@@H](CCCNC(=N)N)C(=O)N[C@@H](C)C(=O)N[C@@H](CC(C)C)C(=O)N[C@@H](CC(=O)O)C(=O)N2)C(C)C)[C@@H](C)CC)CCCCCCC=CCCC[C@@](C)(C(=O)N[C@@H](CCCC)C(=O)NCC(N)=O)NC(=O)[C@H]([C@@H](C)CC)NC(=O)[C@H](C(C)C)NC(=O)[C@H](CC(C)C)NC(=O)[C@H](CO)NC1=O` [SP-332] (Ac-LLQGE[R8]LLRALD[S5]VNIDEE[R8]L[Nle]SLVI[S5][Nle]G-NH2; staple 6-13, 20-27), for which the IC50 (as a rule, the point on the concentration scale where inhibition reaches its midpoint) in assay [1] is ≤ 200 nM. Moreover, in assay [2], the “18 h Avg % max inhibition at top conc (HIF Rptr-24 hrs normoxia) (μM)” value (“18 h Avg % max inhibition at top conc” for short) was “+ (<10: +)” and the EC50 – broadly, the concentration that produces a half-maximal response – is > 30 µM. In assay [3], the “Viability 1% FBS AVG (MTT V3-24 hr Normoxia) (μM)” value (“Viability 1% FBS AVG” for short) is “++++ (≥30: ++++)”.
The matching figures for `CCCC[C@H](NC(=O)[C@]1(C)CCCC=CCCC[C@](C)(NC(=O)[C@H](CCCC)NC(=O)[C@H](CC(C)C)NC(=O)[C@@H](NC(=O)[C@H](CCC(=O)O)NC(=O)[C@H](CCC(=O)O)NC(=O)[C@H](C)NC(=O)[C@@H](NC(=O)[C@H](CC(N)=O)NC(=O)[C@@H](NC(=O)[C@]2(C)CCCC=CCCCCCC[C@@](C)(NC(=O)[C@H](CCC(=O)O)NC(=O)CNC(=O)[C@H](CCC(N)=O)NC(=O)[C@H](CC(C)C)NC(=O)[C@H](CC(C)C)NC(C)=O)C(=O)N[C@@H](CC(C)C)C(=O)N[C@@H](CC(C)C)C(=O)N[C@@H](CCCNC(=N)N)C(=O)N[C@@H](C)C(=O)N[C@@H](CC(C)C)C(=O)N[C@@H](CC(=O)O)C(=O)N2)C(C)C)[C@@H](C)CC)C(C)C)C(=O)N[C@@H](CC(C)C)C(=O)N[C@@H](C(C)C)C(=O)N[C@@H]([C@@H](C)CC)C(=O)N1)C(N)=O` [SP-349] (Ac-LLQGE[R8]LLRALD[S5]VNIAEEVL[Nle][S5]LVI[S5][Nle]-NH2; staple 6-13, 23-27): ≤ 200 nM, “+++ (≤25 but <50: +++)”, > 30 µM and “++++ (≥30: ++++)”.
In the same order, the values of `CCCC[C@@H]1NC(=O)[C@H](CC(C)C)NC(=O)[C@H](C(C)C)NC(=O)[C@@](C)(NC(=O)[C@H](CCC(=O)O)NC(=O)[C@H](CC(=O)O)NC(=O)[C@@H](NC(=O)[C@H](Cc2ccccc2)NC(C)=O)[C@@H](C)CC)CCCC=CCCCC2(CCCC=CCCC[C@](C)(C(=O)N[C@@H](CCCNC(=N)N)C(=O)N[C@@H](C)C(=O)N[C@@H](CC(C)C)C(N)=O)NC(=O)[C@H]([C@@H](C)CC)NC(=O)[C@H](C(C)C)NC(=O)[C@H](CC(C)C)NC2=O)NC1=O` (some centres unmarked) [SP-213] are > 700 nM, “+ (<10: +)”, > 30 µM and “++++ (≥30: ++++)”.
The matching figures for `CC[C@H](C)[C@H](NC(=O)[C@H](Cc1ccccc1)NC(C)=O)C(=O)N[C@@H](CC(=O)O)C(=O)N[C@@H](CCC(=O)O)C(=O)N[C@@]1(C)CCCC=CCCC[C@@](C)(C(=O)N[C@@H](CC(C)C)C(=O)N[C@H](C(=O)N[C@H](C(=O)N[C@@H](CCC(=O)O)C(=O)N[C@@H](CCSC)C(=O)N[C@@H](C)C(=O)N[C@@H](C)C(=O)N[C@@H](C)C(N)=O)[C@@H](C)CC)C(C)C)NC(=O)[C@H](CCSC)NC(=O)[C@H](CC(C)C)NC(=O)[C@H](C(C)C)NC1=O` [SP-117] (Ac-FIDE[S5]VLM[S5]LVIEMAAA-NH2; staple 5-9): > 700 nM, “+++ (≤25 but <50: +++)”, > 30 µM and “++++ (≥30: ++++)”.
For the compound `CCCC[C@H](NC(=O)[C@H](CCC(=O)O)NC(=O)[C@]1(C)CCCC=CCCCCCC[C@@](C)(NC(=O)[C@H](CCC(=O)O)NC(=O)[C@H](CC(=O)O)NC(=O)[C@@H](NC(=O)[C@H](CC(N)=O)NC(=O)[C@@H](NC(=O)[C@]2(C)CCCC=CCCCCCC[C@@](C)(NC(=O)[C@H](CCC(=O)O)NC(=O)CNC(=O)[C@H](CCC(N)=O)NC(=O)[C@H](CC(C)C)NC(=O)[C@H](CC(C)C)NC(C)=O)C(=O)N[C@@H](CC(C)C)C(=O)N[C@@H](CC(C)C)C(=O)N[C@@H](CCCNC(=N)N)C(=O)N[C@@H](C)C(=O)N[C@@H](CC(C)C)C(=O)N[C@@H](CC(=O)O)C(=O)N2)C(C)C)[C@@H](C)CC)C(=O)N[C@@H](C(C)C)C(=O)N[C@@H](CC(C)C)C(=O)N[C@@H](CCCC)C(=O)N[C@@H](CO)C(=O)N[C@@H](CC(C)C)C(=O)N[C@@H](C(C)C)C(=O)N1)C(=O)N[C@@H](C)C(=O)N[C@@H](CC(C)C)C(N)=O` [SP-373] (Ac-LLQGE[R8]LLRALD[S5]VNIDE[R8]VL[Nle]SLV[S5]E[Nle]AL-NH2; staple 6-13, 19-26), the IC50 in assay [1] lay in the range of 200 to 400 nM. Moreover, in assay [2], the “18 h Avg % max inhibition at top conc” value is “+++ (≤25 but <50: +++)” and the EC50 is > 30 µM. The “Viability 1% FBS AVG” value in assay [3] is given as “++++ (≥30: ++++)”.
As for `CCCC[C@H](NC(=O)[C@H](CC(C)C)NC(=O)[C@@H](NC(=O)[C@H](CCC(=O)O)NC(=O)[C@H](CCC(=O)O)NC(=O)[C@H](CC(=O)O)NC(=O)[C@@H](NC(=O)[C@H](CC(N)=O)NC(=O)[C@@H](NC(=O)[C@H](CCC(N)=O)NC(=O)[C@H](CC(=O)O)NC(=O)[C@H](CC(C)C)NC(=O)[C@]1(C)CCCC=CCCC[C@](C)(NC(=O)[C@H](CCC(=O)O)NC(=O)CNC(=O)[C@H](CCC(N)=O)NC(=O)[C@H](CC(C)C)NC(=O)[C@H](CC(C)C)NC(C)=O)C(=O)N[C@@H](CC(C)C)C(=O)N[C@@H](CC(C)C)C(=O)N[C@@H](CCCNC(=N)N)C(=O)N1)C(C)C)[C@@H](C)CC)C(C)C)C(=O)N[C@@]1(C)CCCC=CCCC[C@@](C)(C(=O)N[C@@H](CCCC)C(=O)NCC(N)=O)NC(=O)[C@H]([C@@H](C)CC)NC(=O)[C@H](C(C)C)NC(=O)[C@H](CC(C)C)NC1=O` [SP-307] (Ac-LLQGE[S5]LLR[S5]LDQVNIDEEVL[Nle][S5]LVI[S5][Nle]G-NH2; staple 6-10, 23-27), the IC50 in assay [1] was > 700 nM. Besides, in assay [2], the “18 h Avg % max inhibition at top conc” value is “+++ (≤25 but <50: +++)” and the EC50 was > 30 µM. For the same compound, the “Viability 1% FBS AVG” value in assay [3] was “++++ (≥30: ++++)”.
In the same order, the values of `CCCC[C@H](NC(=O)[C@H](CCC(=O)O)NC(=O)[C@@H](NC(=O)[C@@H](NC(=O)[C@H](CC(C)C)NC(=O)[C@]1(C)CCCC=CCCC[C@](C)(NC(=O)[C@H](CCC(=O)O)NC(=O)[C@H](CC(=O)O)NC(=O)[C@@H](NC(=O)[C@H](Cc2ccccc2)NC(C)=O)[C@@H](C)CC)C(=O)N[C@@H](C(C)C)C(=O)N[C@@H](CC(C)C)C(=O)N[C@@H](C)C(=O)N1)C(C)C)[C@@H](C)CC)C(=O)N[C@@H](C)C(=O)N[C@@H](CC(C)C)C(N)=O` [SP-152] (Ac-FIDE[S5]VLA[S5]LVIE[Nle]AL-NH2; staple 5-9) are 400 to 700 nM, “+++ (≤25 but <50: +++)”, > 30 µM and “++++ (≥30: ++++)”.
Turning to `CCCC[C@H](NC(=O)[C@H](CC(C)C)NC(=O)[C@@H](NC(=O)[C@H](CCC(=O)O)NC(=O)[C@H](CCC(=O)O)NC(=O)[C@H](CC(=O)O)NC(=O)[C@@H](NC(=O)[C@H](CC(N)=O)NC(=O)[C@@H](NC(=O)[C@H](CCC(N)=O)NC(=O)[C@H](CC(=O)O)NC(=O)[C@H](CC(C)C)NC(=O)[C@H](C)NC(=O)[C@]1(C)CCCC=CCCC[C@](C)(NC(=O)CNC(=O)[C@H](CCC(N)=O)NC(=O)[C@H](CC(C)C)NC(=O)[C@H](CC(C)C)NC(C)=O)C(=O)N[C@@H](CCC(=O)O)C(=O)N[C@@H](CC(C)C)C(=O)N[C@@H](CC(C)C)C(=O)N1)C(C)C)[C@@H](C)CC)C(C)C)C(=O)N[C@@]1(C)CCCC=CCCC[C@@](C)(C(=O)N[C@@H](CCCC)C(=O)NCC(N)=O)NC(=O)[C@H]([C@@H](C)CC)NC(=O)[C@H](C(C)C)NC(=O)[C@H](CC(C)C)NC1=O` [SP-338] (Ac-LLQG[S5]ELL[S5]ALDQVNIDEEVL[Nle][S5]LVI[S5][Nle]G-NH2; staple 5-9, 23-27), the IC50 in assay [1] was > 700 nM. Also, in assay [2], the “18 h Avg % max inhibition at top conc” value was “+++ (≤25 but <50: +++)” and the EC50 is > 30 µM. Also, the “Viability 1% FBS AVG” value in assay [3] is “++++ (≥30: ++++)”.
